Data from patent US20130310352A1, “DEXAMETHASONE COMBINATION THERAPY” (priority 2010, published 2013).

Key:
[1] = system: MM cells ARP1, MM.1S and MM.1R; assay: Low-dose single agents, apoptosis; format: cell-based, human; details: 1 μM compound A alone, 1 day
Protocol: (§2) Compound A-induced cell apoptosis was detected by Annexin V binding assay as previously described (Zheng Y, Cai Z, Wang S, et al. Macrophages are an abundant component of myeloma microenvironment and protect myeloma cells from chemotherapy drug-induced apoptosis. Blood. 2009; 114 (17):3625-3628). Briefly, MM cells were cultured in 24-well plates and treated with 0 to 1 mM final concentrations of compound A for 24 or 72 hours. The cells were washed twice with cold PBS and resuspended in Annexin V binding buffer (Invitrogen). MM cells were stained with FITC-conjugated Annexin V and propidium iodide (PI) for 15 min at room temperature. Apoptotic cells were determined as Annexin V positive cells.
Next, the experiment was extended to other MM cell lines, and they were treated with low compound A (1 μM) and dexamethasone (40 μg/ml).
ARP1 cells were treated with 10 μM compound A (BK), 15 nM melphalan (Me), 40 μg/ml dexamethasone (De), 100 μM lenalidomide (Le), 10 μM Bortizomib (BT), or their combinations for 1 day. The cell apoptosis were measured as described. […] Cell apoptosis was measured. […] Same MM cell lines were treated with compound A for 1 day and cell growth were measured by MTS. […] Cell apoptosis were measured by annexin V staining. […] Cells apoptosis rates were measured by annxin V staining. […]

ARP1 cells [2] = assay: Cell cycle analysis (PI, flow cytometry); format: cell-based, human; details: ARP1, 1 μM, 24 hours
Protocol: MM cell lines ARP1, MM.1S and MM.1R were cultured with or without 1 μM compound A for 24 hours. Then, cells were harvested and permeabilized in 70% ethanol at 4° C. for overnight, and incubated with 50 μg/ml PI and 20 μg/ml RNase A for 15 min. DNA content was analyzed by flow cytometry and FlowJo software.
To study the mechanism of compound A induced MM cells growth inhibition and apoptosis, it was examined whether compound A treatment affects MM cell cycle.
(A). Representative histogram of ARP1 treated with 1 μM compound A for 1 day. (B). […] Cell cycle was tested as described.

[3] = system: normal PBMCs from healthy volunteers; assay: Apoptosis of normal PBMCs; format: cell-based, human; details: 24 hours
Protocol: (§1) MM cell lines ARP1, ARK, MM.1S, MM.1R and U266 were maintained in RPMI-1640 medium supplemented with 10% fetal bovine serum, 100 U/ml penicillin and 100 μg/ml streptomycin at 37° C. and 5% CO2 Primary MM cells and MM BMSCs were isolated from bone marrow aspirates of myeloma patients. PBMCs were obtained from healthy volunteers. The study was approved by the Institutional Review Board at The University of Texas M.D. Anderson Cancer Center. Anti-caspase-3, caspase-9, PARP, Bim, XIAP, cyclin D1, pp 70S6K (Thr389) and p27(Kip1) antibodies were purchased from Cell Signaling. Anti-bcl-2, Bc1-XL, Akt, pAkt (Thr 308), pAkt (Ser 473), p70S6K and β-actin antibodies were purchased from Santa Cruz. Compound A was dissolved in DMSO at 10 mM as stock solution. Dexamethasone and Propidium iodide (PI) were purchased from Sigma-Aldrich. Recombinant human IL6 was purchased from R&D Systems. FITC conjugated Annexin V was obtained from Invitrogen.
Apoptotic cells were determined as Annexin V positive cells.
To examine whether compound A induces normal PBMCs apoptosis, normal PBMCs from different healthy volunteers were incubated with 0 to 1 mM compound A for 24 hours. Cells apoptosis rate were measured as described above. […] Thus, these findings indicate that compound A has low cytotoxicity toward resting PBMCs.
(A). Five MM cell lines ARP1, ARK, MM.1S, MM.1R and U266 were cultured in the presence of 0 to 1 mM compound A. Cells were harvested after 1 day or 3 days of treatment. Compound A induced MM cell apoptosis were measured by Annexin V staining as described in Materials and Methods. (B). Same MM cell lines were treated with 0 to 1 mM compound A for 1 or 3 days. Cell growths were assessed by MTS assay. (C). Representative histograms of primary MM cells treated with compound A. (D). Data from 3 patients showing a dose-dependent induction of apoptosis in freshly isolated primary MM cells. Cells were treated with different doses of compound A for 1 day. (E). PBMCs isolated from 3 healthy volunteers were treated with compound A for 1 day.

[4] = system: CD138− stromal cells (BMSCs); assay: Cytotoxicity toward stromal cells in primary MM coculture; format: cell-based, human; details: 0 to 1 mM, 24 hours, versus primary MM cells
Protocol: MM cell lines ARP1, ARK, MM.1S, MM.1R and U266 were maintained in RPMI-1640 medium supplemented with 10% fetal bovine serum, 100 U/ml penicillin and 100 μg/ml streptomycin at 37° C. and 5% CO2 Primary MM cells and MM BMSCs were isolated from bone marrow aspirates of myeloma patients. PBMCs were obtained from healthy volunteers. […] Compound A was dissolved in DMSO at 10 mM as stock solution. […] FITC conjugated Annexin V was obtained from Invitrogen.
as §2
To evaluate compound A function in primary MM cells, the study was extended to CD138+ primary MM cells freshly isolated from myeloma patients. […]

[5] = system: BimS, XIAP and Bc1-XL in MM cells; assay: Immunoblotting, apoptosis regulatory factors; format: cell-based, human; details: 10 μM compound A
Protocol: as §1
Next, the expressions of apoptosis regulatory factors was tested. […] Bim is a pro-apoptotic factor belonging to Bc1-2 family (O'Connor L, Strasser A, O'Reilly L A, et al. Bim: a novel member of the Bc1-2 family that promotes apoptosis. EMBO J. 1998; 17 (2):384-395). Bim has three major isoforms generated by alternative splicing, BimEL, BimL and BimS. The shortest form BimS is the most cytotoxic isoform (Weber A, Paschen S A, Heger K, et al. BimS-induced apoptosis requires mitochondrial localization but not interaction with anti-apoptotic Bel-2 proteins. J. Cell Biol. 2007; 177 (4):625-636). Previous work has shown that the transcription of Bim is regulated by the forkhead transcription factor FKHR-L1, a downstream effector of PI3K (Dijkers P F, Medema R H, Lammers J W, Koenderman L, Coffer P J. Expression of the pro-apoptotic Bc1-2 family member Bim is regulated by the forkhead transcription factor FKHR-L1. Curr Biol. 2000; 10 (19):1201-1204). […] Thus, compound A induced MM cell apoptosis may be caused by up-regulation of cytotoxic BimS and down-regulation of anti-apoptotic XIAP and Bc1-XL.
(A). […]

[6] = system: MM cell lines ARP1, ARK, MM.1S, MM.1R and U266; assay: MTS cell growth assay, all tested MM cell lines; format: cell-based, human; details: 0 to 1 mM, 1 or 3 days
Protocol: as §1
All experiments were performed in triplicate.
(A). Five MM cell lines ARP1, ARK, MM.1S, MM.1R and U266 were cultured in the presence of 0 to 1 mM compound A. Cells were harvested after 1 day or 3 days of treatment. Compound A induced MM cell apoptosis were measured by Annexin V staining as described in Materials and Methods. (B). Same MM cell lines were treated with 0 to 1 mM compound A for 1 or 3 days. Cell growths were assessed by MTS assay. (C). […]

ARP1 cells [7] = assay: Established MM model in SCID mice; format: in vivo; details: 5 μmol per kg per day intraperitoneal, versus PBS control
Protocol: Six to eight week old female SCID mice were housed and monitored in MD. Anderson Cancer Center animal research facility. All experimental procedures and protocols had been approved by the Institutional Animal Care and Use Committee at The University of Texas M.D. Anderson Cancer Center. SCID mice were subcutaneously inoculated in the right flank with 1 million ARP1 cells suspended in 50 μl PBS. After palpable tumor developed (tumor diameters ≧5 mm), mice were treated with daily intraperitoneal injection of PBS or compound A (5 μmol per kg per day). Tumor sizes were measured every 5 days, and blood samples were collected with the same period. Tumor burdens were evaluated by measuring tumor size and detecting circulating human kappa chain.
Levels of human kappa chain in mice serum were measured by a quantitative ELISA (Bethyl Laboratories Inc) followed the vendor's protocol.
To examine compound A anti-MM effects in vivo, human MM model in SCID mice were established as described in Materials and Methods. When palpable tumors developed (≧5 mm diameters), mice (10 per group) received intraperitoneal injection of compound A (5 μmol per kg per day) or vehicle control PBS daily.
SCID mice were inoculated subcutaneously in the right flank with 1×10^6 ARP1 cells. Three to 4 weeks later when palpable tumors (≧5 mm in diameter) developed, mice (10 per group) were treated with intraperitoneal injections of PBS or compound A (100 nmol per mouse per day) daily. Tumor burdens were measured as (A) tumor volumes and (B) levels of circulating human kappa china in SCID mice sera detected by ELSA, and (C) survival of tumor-bearing mice.

SMILES: Nc1cc(C(F)(F)F)c(-c2cc(N3CCOCC3)nc(N3CCOCC3)n2)cn1 [compound A, 5-(2,6-di-morpholin-4-yl-pyrimidin-4-yl)-4-trifluoromethyl-pyridin-2-ylamine]
- cytotoxic effect of low dose alone [1]: only limited cytotoxic effect
- G1 phase cells (ARP1 cells [2]): increased
- S phase cells (ARP1 cells [2]): decreased
- toxicity toward normal PBMCs ([3]; 0 to 1 mM): comparably low toxicity
- PBMC apoptosis ([3]; 10 μM): less than 40%
- PBMC apoptosis ([3]; 100 μM): less than 40%
- cytotoxicity toward CD138− stromal cells [4]: significantly lower cytotoxicity
- Bc1-XL expression [5]: down-regulated
- BimS expression [5]: up-regulated
- XIAP expression [5]: down-regulated
- MM cells growth inhibition [6]: dose dependent growth inhibition
- survival of tumor-bearing mice (ARP1 cells [7]): significantly prolonged
- tumor burden measured by tumor volume (ARP1 cells [7]; P<0.05): significantly smaller tumor burdens
- tumor burden measured by level of circulating human kappa chain (ARP1 cells [7]; P<0.05, ELISA): significantly smaller tumor burdens
